Laboratory results: patent publication US20020111274A1, “1-alkyl-3-[1-(substituted phenyl) benzotriazol-6-yl] uracils” (BASF Aktiengesellschaft, priority 2000, published 2002)

What was measured:
Design in all cases: scale not given here
GLXMAW Soybean, Williams = test: Preemergence herbicidal evaluation, GLXMAW; type: in vivo, Glycine max, (L.) Merr. cv Williams; conditions: preemergence
Summary of the method: (§1)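 First, seed is blended with potting soil and sown over roughly an inch of soil per cup. Next, the surface is sprayed with an aqueous acetone solution delivering about 0.013–0.800 kg/ha. Finally, cups are grown in the greenhouse and rated after 4–5 weeks.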

ORYSAT Rice, Tebonnet = test: Postemergence herbicidal evaluation, ORYSAT; type: in vivo, Oryza sativa, (L.); conditions: postemergence spray, rated about two-three weeks after treatment
Summary of the method: (§2)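 Visual injury rating ~2–3 wk post-spray; replicate tests averaged. Two-week-old seedlings; foliar spray at 40 psi; 0.006–0.400 kg ai/ha in 80/20 acetone/water + 1.0% methylated seed oil.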

CASOB Sicklepod = test: Preemergence herbicidal evaluation, CASOB; type: in vivo, Cassia obtusifolia, L.; conditions: preemergence
Summary of the method: as §1

ECHOG Barnyardgrass = test: Preemergence herbicidal evaluation, ECHOG; type: in vivo, Echinochloa crus-galli, (L.) Beau; conditions: preemergence
Summary of the method: as §1

[1] = test system: TRZAWR Wheat, Winter, cv Riband; test: Postemergence herbicidal evaluation, TRZAWR; type: in vivo, Triticum aestivum; conditions: postemergence spray, rated about two-three weeks after treatment
Summary of the method: as §2

[2] = test system: CHEAL Lambsquarters, Common; test: Preemergence herbicidal evaluation, CHEAL; type: in vivo, Chenopodium album, L.; conditions: preemergence
Summary of the method: as §1

GALAP Galium = test: Preemergence herbicidal evaluation, GALAP; type: in vivo, Galium aparine; conditions: preemergence
Summary of the method: as §1

[3] = test system: CHEAL Lambsquarters, Common; test: Postemergence herbicidal evaluation, CHEAL; type: in vivo, Chenopodium album, L.; conditions: postemergence spray, rated about two-three weeks after treatment
Summary of the method: as §2

AMBEL Ragweed, Common [4] = test: Preemergence herbicidal evaluation, AMBEL; type: in vivo, Ambrosia artemisifolia, L.; conditions: preemergence
Summary of the method: as §1

[5] = test system: TRZAWR Wheat, Winter, cv Riband; test: Preemergence herbicidal evaluation, TRZAWR; type: in vivo, Triticum aestivum; conditions: preemergence
Summary of the method: as §1

SETVI Foxtail, Green = test: Postemergence herbicidal evaluation, SETVI; type: in vivo, Setaria viridis, (L.) Beau; conditions: postemergence spray, rated about two-three weeks after treatment
Summary of the method: as §2

AMBEL Ragweed, Common [6] = test: Postemergence herbicidal evaluation, AMBEL; type: in vivo, Ambrosia artemisifolia, L.; conditions: postemergence spray, rated about two-three weeks after treatment
Summary of the method: as §2

Cc1ccccc1-n1nnc2cc(F)c(-n3c(=O)cc(C(F)(F)F)n(C)c3=O)cc21 [Example 20]
GLXMAW herbicidal rating (GLXMAW Soybean, Williams; rate 0.016 kg/ha): 0.0 | GLXMAW herbicidal rating (GLXMAW Soybean, Williams; rate 0.032 kg/ha): 0.5 | GLXMAW herbicidal rating (GLXMAW Soybean, Williams; rate 0.062 kg/ha): 1.5 | GLXMAW herbicidal rating (GLXMAW Soybean, Williams; rate 0.125 kg/ha): 3.0 | Postemergence herbicidal rating ORYSAT (ORYSAT Rice, Tebonnet; 0.008 kg/ha): 0.0 | Postemergence herbicidal rating ORYSAT (ORYSAT Rice, Tebonnet; 0.016 kg/ha): 0.5 | Postemergence herbicidal rating ORYSAT (ORYSAT Rice, Tebonnet; 0.032 kg/ha): 0.5 | Postemergence herbicidal rating ORYSAT (ORYSAT Rice, Tebonnet; 0.062 kg/ha): 1.0 | CASOB herbicidal rating (CASOB Sicklepod; rate 0.016 kg/ha): 0.0 | CASOB herbicidal rating (CASOB Sicklepod; rate 0.032 kg/ha): 0.0 | CASOB herbicidal rating (CASOB Sicklepod; rate 0.062 kg/ha): 0.0 | CASOB herbicidal rating (CASOB Sicklepod; rate 0.125 kg/ha): 2.0 | ECHCG herbicidal rating (ECHOG Barnyardgrass; rate 0.016 kg/ha): 0.0 | ECHCG herbicidal rating (ECHOG Barnyardgrass; rate 0.032 kg/ha): 0.0 | ECHCG herbicidal rating (ECHOG Barnyardgrass; rate 0.062 kg/ha): 3.5 | ECHCG herbicidal rating (ECHOG Barnyardgrass; rate 0.125 kg/ha): 8.0 | Postemergence herbicidal rating TRZAWR ([1]; 0.008 kg/ha): 1.5 | Postemergence herbicidal rating TRZAWR ([1]; 0.016 kg/ha): 1.5 | Postemergence herbicidal rating TRZAWR ([1]; 0.032 kg/ha): 1.5 | Postemergence herbicidal rating TRZAWR ([1]; 0.062 kg/ha): 2.5 | CHEAL herbicidal rating ([2]; rate 0.016 kg/ha): 9.0 | CHEAL herbicidal rating ([2]; rate 0.032 kg/ha): 9.0 | CHEAL herbicidal rating ([2]; rate 0.062 kg/ha): 9.0 | CHEAL herbicidal rating ([2]; rate 0.125 kg/ha): 9.0 | GALAP herbicidal rating (GALAP Galium; rate 0.016 kg/ha): 0.0 | GALAP herbicidal rating (GALAP Galium; rate 0.032 kg/ha): 0.0 | GALAP herbicidal rating (GALAP Galium; rate 0.062 kg/ha): 0.0 | GALAP herbicidal rating (GALAP Galium; rate 0.125 kg/ha): 0.0 | Postemergence herbicidal rating CHEAL ([3]; 0.008 kg/ha): 0.0 | Postemergence herbicidal rating CHEAL ([3]; 0.016 kg/ha): 0.0 | Postemergence herbicidal rating CHEAL ([3]; 0.032 kg/ha): 3.0 | Postemergence herbicidal rating CHEAL ([3]; 0.062 kg/ha): 5.0 | AMBEL herbicidal rating (AMBEL Ragweed, Common [4]; rate 0.016 kg/ha): 0.0 | AMBEL herbicidal rating (AMBEL Ragweed, Common [4]; rate 0.032 kg/ha): 1.5 | AMBEL herbicidal rating (AMBEL Ragweed, Common [4]; rate 0.062 kg/ha): 2.5 | AMBEL herbicidal rating (AMBEL Ragweed, Common [4]; rate 0.125 kg/ha): 5.5 | TRZAWR herbicidal rating ([5]; rate 0.016 kg/ha): 0.0 | TRZAWR herbicidal rating ([5]; rate 0.032 kg/ha): 0.0 | TRZAWR herbicidal rating ([5]; rate 0.062 kg/ha): 4.0 | TRZAWR herbicidal rating ([5]; rate 0.125 kg/ha): 6.0 | Postemergence herbicidal rating SETVI (SETVI Foxtail, Green; 0.008 kg/ha): 0.0 | Postemergence herbicidal rating SETVI (SETVI Foxtail, Green; 0.016 kg/ha): 0.0 | Postemergence herbicidal rating SETVI (SETVI Foxtail, Green; 0.032 kg/ha): 0.0 | Postemergence herbicidal rating SETVI (SETVI Foxtail, Green; 0.062 kg/ha): 0.0 | Postemergence herbicidal rating AMBEL (AMBEL Ragweed, Common [6]; 0.008 kg/ha): 0.0 | Postemergence herbicidal rating AMBEL (AMBEL Ragweed, Common [6]; 0.016 kg/ha): 1.0 | Postemergence herbicidal rating AMBEL (AMBEL Ragweed, Common [6]; 0.032 kg/ha): 1.0 | Postemergence herbicidal rating AMBEL (AMBEL Ragweed, Common [6]; 0.062 kg/ha): 3.0
